Measurements as given in patent US20240065302A1, “SWEETENER COMPOSITIONS COMPRISING MOGROSIDES AND USES THEREOF” (Firmenich Incorporated, priority 2021, published 2024).

What was measured:
Type in all cases: in vivo, human
[1] = Expert panelists' comparison of mogrosides with stevia; conditions: with respect to Examples 4 and 5 (so in the source)
Method: (§1) A panel of flavorists at three locations evaluated lemon-lime beverage various mogrosides at a concentration of 600 ppm mogrosides for in-mouth attributes (peak sweetness, upfront sweetness, bitterness, and mouthfeel/thickness) and aftertaste attributes (sweet tastle linger), on a 0 to 10 scale. The in-mouth attributes were evaluated while holding the sample in the mouth, while the aftertaste attributes were evaluated after expectoration.
as §1, with “vanilla milk containing” for “lemon-lime beverage”, “400” for “600”, “expectoration. The data was analyzed using Duncan's new multiple range test and the scores are provided in the data below in parentheses.” for “expectoration.”

[2] = Additional sensory testing for vanilla milk (panel of flavorists); conditions: 400 ppm mogrosides, in-mouth, 0 to 10 scale
Method: as §1, with “vanilla milk containing” for “lemon-lime beverage”, “400” for “600”, “expectoration. The data was analyzed using Duncan's new multiple range test and the scores are provided in the data below in parentheses.” for “expectoration.”

[3] = Sensory testing for vanilla milk (panel of volunteers); conditions: for Licorice Aftertaste / Lingering Sweetness / Mouth Coating / Overall Off-Taste: aftertaste
Method: (§2) A panel of volunteers evaluated siratose for in-mouth attributes (sweetness, delayed sweetness, sourness, bitterness, global flavor intensity, thickness/body, and astringence) and aftertaste (AT) attributes (lingering sweetness, overall off-taste intensity, licorice off-tast, bitterness off-taste, and mouth coating) on a 10-point scale. Two replicate session were conducted, with a 20 minute break between sessions. There was a 90 second delay between samples within a session. Panelists evaluated all samples in a first session and evaluated the samples again a second time in a second session. Control samples of Rebaudioside M (Reb M) were evaluated during all sessions as a control. Mogroside V was also evaluated and sensory data for mogroside V is provided.
(§3) Data analysis was performed using 2-way analysis of variance (ANOVA) with interaction using Tukey's HSD test. The data was normalized for each attribute according to average scores for Reb M.
A panel of volunteers evaluated vanilla milk containing siratose for in-mouth attributes and aftertaste attributes according to the methods described in Example 1 above.

[4] = Sensory testing for sparkling orange beverage (panel of volunteers)
Method: as §2, §3
A panel of volunteers evaluated a sparkling orange beverage containing siratose for in-mouth attributes and aftertaste attibutes according to the methods described in Example 1 above.

[5] = Sensory testing for lemon-lime carbonated soft drink (panel of volunteers)
Method: as §2, §3
A panel of volunteers evaluated the siratose-containing lemon-lime carbonated soft drink for in-mouth attributes and aftertaste attributes according to the methods described in Example 1 above.

[6] = Sensory testing for apple drink (panel of volunteers); conditions: for Bitterness / Delayed Sweetness / Global Flavor Intensity / Sweetness / Thickness/Body: in-mouth, normalized to Reb M
Method: as §2, §3

[7] = Additional sensory testing for lemon-flavored (lemon-lime) beverage (panel of flavorists); conditions: 600 ppm mogrosides, in-mouth, 0 to 10 scale
Method: as §1

[8] = 200 ppm, 10-point scale, normalized
[9] = 200 ppm, in-mouth, 10-point scale, normalized
[10] = 400 ppm, 10-point scale, normalized
[11] = 400 ppm, in-mouth, 10-point scale, normalized
[12] = 250 ppm, aftertaste, 10-point scale, normalized
[13] = 250 ppm, in-mouth, 10-point scale, normalized
[14] = 600 ppm, aftertaste, 10-point scale, normalized
[15] = 600 ppm, in-mouth, 10-point scale, normalized
[16] = 250 ppm, aftertaste, 10-point scale
[17] = 500 ppm, aftertaste, 10-point scale

Question: Which “Aftertaste and mouthfeel compared with stevia (in words)” value [1] does the source give for Isomogroside IVE here?
Answer: Its value is “lower licorice aftertaste and lower bitter aftertaste as compared with stevia while having a better mouthfeel”.

Question: What about the Bitterness [2] of the same compound?
Answer: The Bitterness was 1.313.

Question: Which “Aftertaste and mouthfeel compared with stevia (in words)” value [1] does the source give for `C[C@H](CC[C@@H](O[C@@H]1O[C@H](CO[C@H]2O[C@H](CO)[C@@H](O)[C@H](O)[C@H]2O)[C@@H](O)[C@H](O)[C@H]1O[C@@H]1O[C@H](CO)[C@@H](O)[C@H](O)[C@H]1O)C(C)(C)O)[C@H]1CC[C@@]2(C)[C@]3(C)CC=C4[C@@H](CC[C@H](O[C@@H]5O[C@H](CO)[C@@H](O)[C@H](O)[C@H]5O)C4(C)C)[C@]3(C)[C@H](O)C[C@]12C` [siratose] here?
Answer: The value was “lower licorice aftertaste and lower bitter aftertaste as compared with stevia while having a better mouthfeel”.

Question: And the “Sensory profile compared with Reb M (in words)” value ([3]; 200 ppm and 400 ppm)?
Answer: The value was “improved sweetness as comparted to Reb M”.

Question: What about the “Sensory profile compared with mogroside V (in words)” value ([3]; 200 ppm and 400 ppm) of the same compound?
Answer: The value was “sweeter than mogroside V at both 200 ppm and 400 ppm, while having a similar aftertaste profile”.

Question: And the “Licorice Aftertaste” value [3, 8]?
Answer: Its value is 1.0.

Question: And the “Lingering Sweetness” value [3, 8]?
Answer: Its value is 3.1.

Question: And the “Mouth Coating” value [3, 8]?
Answer: The value was 3.2.

Question: And the “Overall Off-Taste” value [3, 8]?
Answer: Its value is 1.9.

Question: And the Astringence [3, 9]?
Answer: The Astringence was 0.5.

Question: And the “Delayed Sweetness” value [3, 9]?
Answer: Its value is 1.7.

Question: What about the Fattiness [3, 9] of the same compound?
Answer: Its Fattiness is 3.1.

Question: And the Sourness [3, 9]?
Answer: Its Sourness is 0.5.

Question: And the Sweetness [3, 9]?
Answer: The Sweetness was 5.6.

Question: What about the “Licorice Aftertaste” value [3, 10] of the same compound?
Answer: The value was 1.1.

Question: And the “Lingering Sweetness” value [3, 10]?
Answer: Its value is 4.0.

Question: What about the “Mouth Coating” value [3, 10] of the same compound?
Answer: The value was 0.8.

Question: And the “Overall Off-Taste” value [3, 10]?
Answer: Its value is 2.4.

Question: And the Astringence [3, 11]?
Answer: The Astringence was 0.5.

Question: And the Bitterness [3, 11]?
Answer: Its Bitterness is 0.6.

Question: What about the “Delayed Sweetness” value [3, 11] of the same compound?
Answer: Its value is 2.3.

Question: What about the Fattiness [3, 11] of the same compound?
Answer: The Fattiness was 3.6.

Question: And the “Global Flavor Intensity” value [3, 11]?
Answer: Its value is 5.1.

Question: What about the Sourness [3, 11] of the same compound?
Answer: Its Sourness is 0.5.

Question: And the Sweetness [3, 11]?
Answer: The Sweetness was 7.1.

Question: And the “Off-taste and mouth coating compared with Reb M (in words)” value [4]?
Answer: The value was “slightly lower off-taste and higher mouth coating than Reb M”.

Question: What about the “Sweetness compared with mogroside V (in words)” value [4] of the same compound?
Answer: The value was “greater sweetness than mogroside V”.

Question: And the “Licorice Aftertaste” value [4, 12]?
Answer: The value was 2.9.

Question: What about the “Lingering Sweetness” value [4, 12] of the same compound?
Answer: Its value is 4.4.

Question: What about the “Mouth Coating” value [4, 12] of the same compound?
Answer: The value was 3.0.

Question: And the “Overall Off-Taste” value [4, 12]?
Answer: The value was 3.1.

Question: What about the “Delayed Sweetness” value [4, 13] of the same compound?
Answer: The value was 4.1.

Question: What about the Sweetness [4, 13] of the same compound?
Answer: The Sweetness was 5.8.

Question: What about the “Sweetness and delayed sweetness compared with control Reb M (in words)” value ([4]; same concentration) of the same compound?
Answer: Its value is “high sweetness score and an increased delayed sweetness compared to the control Reb M samples”.

Question: And the “Sensory profile compared with mogroside V (in words)” value [5]?
Answer: Its value is “higher sweetness and global flavor intensity as compared to mogroside V while having a similar aftertaste profile”.

Question: What about the “Bitterness Aftertaste” value [5, 14] of the same compound?
Answer: Its value is 1.3.

Question: And the “Licorice Aftertaste” value [5, 14]?
Answer: The value was 2.3.

Question: What about the “Lingering Sweetness” value [5, 14] of the same compound?
Answer: Its value is 4.3.

Question: And the “Overall Off-Taste” value [5, 14]?
Answer: Its value is 3.9.

Question: And the Bitterness [5, 15]?
Answer: Its Bitterness is 2.1.

Question: And the “Delayed Sweetness” value [5, 15]?
Answer: The value was 3.9.

Question: What about the “Global Flavor Intensity” value [5, 15] of the same compound?
Answer: Its value is 4.5.

Question: And the Sweetness [5, 15]?
Answer: The Sweetness was 6.0.

Question: What about the “Sensory profile compared with control Reb M (in words)” value ([5]; same concentration) of the same compound?
Answer: The value was “high sweetness score and similar in-mouth and aftertaste attributes as the control Reb M samples”.

Question: And the “Sensory profile compared with mogroside V (in words)” value [6]?
Answer: The value was “sweeter, less bitter, and have a higher global flavor intensity than mogroside V, while having a lower overall off taste, licorice aftertaste, and bitterness aftertaste”.

Question: What about the “Bitterness Aftertaste” value [6, 16] of the same compound?
Answer: Its value is 1.1.

Question: And the “Licorice Aftertaste” value [6, 16]?
Answer: The value was 1.8.

Question: What about the “Lingering Sweetness” value [6, 16] of the same compound?
Answer: The value was 3.4.

Question: And the “Overall Off-Taste” value [6, 16]?
Answer: The value was 2.8.

Question: What about the Bitterness ([6]; 250 ppm, 10-point scale) of the same compound?
Answer: Its Bitterness is 1.5.

Question: What about the “Delayed Sweetness” value ([6]; 250 ppm, 10-point scale) of the same compound?
Answer: The value was 2.2.

Question: And the “Global Flavor Intensity” value ([6]; 250 ppm, 10-point scale)?
Answer: Its value is 3.7.

Question: And the Sweetness ([6]; 250 ppm, 10-point scale)?
Answer: The Sweetness was 4.2.

Question: What about the Thickness/Body ([6]; 250 ppm, 10-point scale) of the same compound?
Answer: The Thickness/Body was 1.5.

Question: What about the “Licorice Aftertaste” value [6, 17] of the same compound?
Answer: Its value is 2.8.

Question: And the “Lingering Sweetness” value [6, 17]?
Answer: The value was 5.2.

Question: What about the “Mouth Coating” value [6, 17] of the same compound?
Answer: The value was 2.6.

Question: What about the “Overall Off-Taste” value [6, 17] of the same compound?
Answer: Its value is 4.0.

Question: And the Bitterness ([6]; 500 ppm, 10-point scale)?
Answer: The Bitterness was 1.7.

Question: And the “Delayed Sweetness” value ([6]; 500 ppm, 10-point scale)?
Answer: The value was 3.4.

Question: And the “Global Flavor Intensity” value ([6]; 500 ppm, 10-point scale)?
Answer: Its value is 4.6.

Question: And the Sweetness ([6]; 500 ppm, 10-point scale)?
Answer: Its Sweetness is 5.9.

Question: And the Thickness/Body ([6]; 500 ppm, 10-point scale)?
Answer: Its Thickness/Body is 1.8.

Question: What about the “Sensory profile compared with control Reb M (in words)” value ([6]; same concentration) of the same compound?
Answer: The value was “high sweetness score and similar in-mouth and aftertaste attributes as the control Reb M samples”.

Question: With `C[C@H](CC[C@@H](O[C@@H]1O[C@H](CO[C@@H]2O[C@H](CO)[C@@H](O)[C@H](O)[C@H]2O)[C@@H](O)[C@H](O)[C@H]1O[C@@H]1O[C@H](CO)[C@@H](O)[C@H](O)[C@H]1O)C(C)(C)O)[C@H]1CC[C@@]2(C)[C@@H]3CC=C4[C@@H](CC[C@H](O[C@@H]5O[C@H](CO)[C@@H](O[C@@H]6O[C@H](CO)[C@@H](O)[C@H](O)[C@H]6O)[C@H](O)[C@H]5O)C4(C)C)[C@]3(C)[C@H](O)C[C@]12C` [Isomogroside V] as the compound, how does the “Aftertaste and mouthfeel compared with stevia (in words)” value [1] read?
Answer: Its value is “lower licorice aftertaste and lower bitter aftertaste as compared with stevia while having a better mouthfeel”.

Question: For `C[C@H](CC[C@@H](O[C@@H]1O[C@H](CO[C@@H]2O[C@H](CO)[C@@H](O)[C@H](O)[C@H]2O)[C@@H](O)[C@H](O)[C@H]1O[C@@H]1O[C@H](CO)[C@@H](O)[C@H](O)[C@H]1O)C(C)(C)O)[C@H]1CC[C@@]2(C)[C@@H]3CC=C4[C@@H](CC[C@H](O[C@@H]5O[C@H](CO)[C@@H](O)[C@H](O)[C@H]5O)C4(C)C)[C@]3(C)[C@H](O)C[C@]12C` [Siamenoside I], which “Aftertaste and mouthfeel compared with stevia (in words)” value [1] is on record?
Answer: The value was “lower licorice aftertaste and lower bitter aftertaste as compared with stevia while having a better mouthfeel”.

Question: And the “Peak Sweetness” value [7]?
Answer: Its value is 6.571 (b)_.

Question: What about the “Peak Sweetness” value [2] of the same compound?
Answer: Its value is 7.375 (a)_.
